Patent publication US11230541B2, “Heterocyclic compound” (Takeda Pharmaceutical Company Limited, priority 2017, dated 2022)

Biological target: T1, NMDA receptor composed of four subunits including 2 sets of heterodimers of NR1 and NR2B (Homo sapiens, UniProt Q13224)
T1 construct: host or cells: HEK293 (tetracycline-induced expression)
Assay: NR2B Ca2+ influx assay (FLIPR, Fluo-4) in HEK293 cells expressing human GRIN1 and GRIN2B
Format: cell-based
Details: HEK293, 10 μM final compound concentration, glutamic acid/glycine-induced Ca2+ influx, read-out: inhibitory rate (10 μM compound concentration)
Method in brief: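 Inhibition rate was calculated from 5-min cumulative Fluo-4 signal (FLIPR, 3-s reads), using agonist-free buffer wells as 100% inhibition. Compound, 10 μM final, was applied 15 min before adding buffer with 30 μM glutamic acid and glycine to HEK293 cells with tetracycline-induced human NR1/NR2B, in HEPES pH 7.2 with 1.8 mM CaCl2.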

T1 sequence (Q13224 27-1484, other chains not shown): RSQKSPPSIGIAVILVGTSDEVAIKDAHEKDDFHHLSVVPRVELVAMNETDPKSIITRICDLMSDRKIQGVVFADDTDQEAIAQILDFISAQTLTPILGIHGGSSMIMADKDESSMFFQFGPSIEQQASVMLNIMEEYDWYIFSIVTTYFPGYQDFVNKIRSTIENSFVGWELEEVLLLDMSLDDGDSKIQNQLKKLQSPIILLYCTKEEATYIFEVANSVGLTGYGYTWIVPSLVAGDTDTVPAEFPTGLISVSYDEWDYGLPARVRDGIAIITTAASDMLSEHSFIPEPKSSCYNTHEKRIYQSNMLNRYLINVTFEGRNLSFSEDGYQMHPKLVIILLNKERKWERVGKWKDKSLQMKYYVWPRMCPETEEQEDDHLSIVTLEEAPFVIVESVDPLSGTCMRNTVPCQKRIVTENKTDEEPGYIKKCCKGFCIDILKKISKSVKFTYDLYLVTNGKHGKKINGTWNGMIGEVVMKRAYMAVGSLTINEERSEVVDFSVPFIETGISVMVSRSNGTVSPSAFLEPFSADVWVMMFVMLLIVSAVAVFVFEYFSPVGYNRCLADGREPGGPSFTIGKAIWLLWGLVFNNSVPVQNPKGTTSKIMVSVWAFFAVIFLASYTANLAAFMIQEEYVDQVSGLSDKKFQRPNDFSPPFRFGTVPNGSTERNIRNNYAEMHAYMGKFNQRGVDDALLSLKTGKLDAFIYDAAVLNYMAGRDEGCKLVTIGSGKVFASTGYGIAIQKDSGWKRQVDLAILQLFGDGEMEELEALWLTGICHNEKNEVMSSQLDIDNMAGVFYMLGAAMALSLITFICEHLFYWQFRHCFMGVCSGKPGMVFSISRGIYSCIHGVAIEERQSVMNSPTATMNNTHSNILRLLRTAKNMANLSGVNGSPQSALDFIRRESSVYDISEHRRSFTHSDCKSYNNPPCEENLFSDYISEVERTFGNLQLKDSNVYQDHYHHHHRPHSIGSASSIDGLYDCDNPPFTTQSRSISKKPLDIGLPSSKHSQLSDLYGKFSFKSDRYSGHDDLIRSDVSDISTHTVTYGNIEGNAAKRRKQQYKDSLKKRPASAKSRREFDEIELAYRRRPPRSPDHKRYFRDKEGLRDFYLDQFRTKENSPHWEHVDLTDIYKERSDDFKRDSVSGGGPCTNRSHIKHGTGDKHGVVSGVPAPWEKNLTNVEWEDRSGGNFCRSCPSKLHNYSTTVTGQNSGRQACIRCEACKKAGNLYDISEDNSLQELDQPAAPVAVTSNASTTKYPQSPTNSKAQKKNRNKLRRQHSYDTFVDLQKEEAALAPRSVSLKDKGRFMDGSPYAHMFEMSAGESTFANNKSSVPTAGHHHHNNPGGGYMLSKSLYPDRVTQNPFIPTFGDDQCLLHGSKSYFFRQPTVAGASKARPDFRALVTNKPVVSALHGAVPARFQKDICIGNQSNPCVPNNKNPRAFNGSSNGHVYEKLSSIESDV

Row | SMILES | inhibition at 10 µM [%]
1 | COc1ccc2nc(C)n(C)c2c1CNC(=O)c1ccc(OC(F)F)cc1 [Example 245, 4-(difluoromethoxy)-N-((6-methoxy-1,2-dimethyl-1H-benzimidazol-7-yl)methyl)benzamide] | 81
2 | COc1ccc2nc(C)n(C)c2c1CNC(=O)c1cc(F)c(OC(F)F)c(F)c1 [Example 246, 4-(difluoromethoxy)-3,5-difluoro-N-((6-methoxy-1,2-dimethyl-1H-benzimidazol-7-y1)methyl)benzamide] | 87
3 | COc1ccc2nc(C)n(C)c2c1CNC(=O)c1ccc(F)c(Cl)c1 [Example 247, 3-chloro-4-fluoro-N-((6-methoxy-1,2-dimethyl-1H-benzimidazol-7-yl)methyl)benzamide] | 71
4 | COc1ccc2nc(C)n(C)c2c1CNC(=O)c1ccc(Cl)c(F)c1 [Example 248, 4-chloro-3-fluoro-N-((6-methoxy-1,2-dimethyl-1H-benzimidazol-7-yl)methyl)benzamide] | 64
5 | COc1ccc2nc(C)n(C)c2c1CNC(=O)c1ccc(Cl)cc1 [Example 249, 4-chloro-N-((6-methoxy-1,2-dimethyl-1H-benzimidazol-7-yl)methyl)benzamide] | 57
6 | COc1ccc2nc(C)n(C)c2c1CNC(=O)c1ccc(C(F)F)c(Cl)c1 [Example 250] | 58
7 | COc1ccc2nc(C)n(C)c2c1CNC(=O)c1cnc(OC(F)F)c(F)c1 [Example 251, 6-(difluoromethoxy)-5-fluoro-N-((6-methoxy-1,2-dimethyl-1H-benzimidazol-7-yl)methyl)nicotinamide] | 76
8 | COc1ccc2nc(C)n(C)c2c1CNC(=O)c1ccc(OC(F)(F)F)cc1 [Example 252, N-((6-methoxy-l,2-dimethyl-1H-benzimidazol-7-yl)methyl)-4-(trifluoromethoxy)-benzamide] | 88
9 | COc1ccc2nc(C)n(C)c2c1CNC(=O)c1ccc(OC(F)F)c(F)c1 [Example 253, 4-(difluoromethoxy)-3-fluoro-N-((6-methoxy-1,2-dimethyl-1H-benzimidazol-7-yl)methyl)benzamide] | 84
10 | COc1ccc2nc(C)n(C)c2c1CNC(=O)c1ccc(OC(F)F)nc1 [Example 254, 6-(difluoromethoxy)-N-((6-methoxy-1,2-dimethyl-lH-benzimidazol-7-yl)methyl)nicotinamide] | 69
11 | COc1ccc2ncn(C)c2c1CNC(=O)Nc1ccccc1 [Example 255, 1-((6-methoxy-1-methyl-1H-benzimidazol-7-yl)methyl)-3-phenylurea] | 67
12 | COc1ccc2ncn(C)c2c1CNC(=O)Nc1ccc(C)cc1 [Example 256, 1-((6-methoxy-1-methyl-1H-benzimidazol-7-yl)methyl)-3-(4-methylphenyl)urea] | 90
13 | COc1ccc2ncn(C)c2c1CNC(=O)Nc1ccc(Cl)cc1 [Example 257, 1-(4-chlorophenyl)-3-((6-methoxy-1-methyl-1H-benzimidazol-7-yl)methyl)urea] | 90
14 | COc1ccc2ncn(C)c2c1CNC(=O)Nc1ccc(F)c(F)c1 [Example 258, 1-(3,4-difluorophenyl)-3-((6-methoxy-1-methyl-1H-benzimidazol-7-yl)methyl)urea] | 85
15 | COc1ccc(NC(=O)NCc2c(OC)ccc3ncn(C)c23)c(F)c1F [Example 259, 1-(2,3-difluoro-4-methoxyphenyl)-3-((6-methoxy-1-methyl-1H-benzimidazol-7-yl)methyl)urea] | 87
16 | COc1ccc2ncn(C)c2c1CNC(=O)Nc1ccc(C(F)(F)F)cc1F [Example 260, 1-(2-fluoro-4-(trifluoromethyl)-phenyl)-3-((6-methoxy-1-methyl-1H-benzimidazol-7-yl)methyl)urea] | 92

Row | SMILES | inhibition at 10 µM [%]
17 | COc1ccc2ncn(C)c2c1CNC(=O)Nc1ccc(C(F)(F)F)c(F)c1 [Example 261, 1-(3-fluoro-4-(trifluoromethyl)-phenyl)-3-{(6-methoxy-1-methyl-1H-benzimidazol-7-yl)methyl)urea] | 92
18 | COc1ccc2ncn(C)c2c1CNC(=O)Nc1ccc(C(F)(F)F)cc1 [Example 262, 1-((6-methoxy-1-methyl-1H-benzimidazol-7-yl)methyl)-3-(4-(trifluoromethyl)-phenyl)urea] | 91
19 | Cc1ccc2[nH]nnc2c1CNC(=O)c1ccc(OC(F)F)c(F)c1 [Example 263, 4-(difluoromethoxy)-3-fluoro-N-((5-methyl-1H-benzotriazol-4-yl)methyl)benzamide] | 98
20 | COc1ccc(C(=O)NCc2c(C)ccc3[nH]nnc23)cc1 [Example 264, 4-methoxy-N-((5-methyl-1H-benzotriazol-4-yl)methyl)benzamide] | 83
21 | Cc1ccc2[nH]nnc2c1CNC(=O)c1ccc(OC(F)F)cc1 [Example 265, 4-(difluoromethoxy)-N-((5-methyl-1H-benzotriazol-4-yl)methyl)benzamide] | 97
22 | COc1ccc(NC(=O)NCc2c(OC)ccc3ncn(C)c23)cc1 [Example 266, 1-((6-methoxy-1-methyl-lH-benzimidazol-7-yl)methyl)-3-(4-methoxyphenyl)urea] | 58
23 | COc1ccc2ncn(C)c2c1CNC(=O)Nc1ccc(F)c(C(F)(F)F)c1 [Example 267, 1-(4-fluoro-3-(trifluoromethyl)-phenyl)-3-((6-methoxy-1-methyl-lH-benzimidazol-7-yl)methyl)urea] | 74
24 | Cc1ccc2[nH]nnc2c1CNC(=O)c1cnc(OC(F)F)c(F)c1 [Example 268, 6-(difluoromethoxy)-5-fluoro-N-((5-methyl-1H-benzotriazol-4-y1)methyl)nicotinamide] | 97
25 | Cc1n[nH]c2cccc(CNC(=O)c3ccc(OC(F)(F)F)c(F)c3)c12 [Example 269, 3-fluoro-N-((3-methyl-1H-indazol-4-yl)methyl)-4-(trifluoromethoxy)-benzamide] | 87
26 | COc1c(F)cc(C(=O)NCc2cccc3[nH]nc(C)c23)cc1F [Example 270, 3,5-difluoro-4-methoxy-N-((3-methyl-1H-indazol-4-yl)methyl)benzamide] | 67
27 | Cc1n[nH]c2cccc(CNC(=O)c3cnc(OC(F)F)c(F)c3)c12 [Example 271, 6-(difluoromethoxy)-5-fluoro-N-((3-methyl-1H-indazol-4-yl)methyl)nicotinamide] | 82
28 | O=C(NCc1cccc2[nH]nc(Br)c12)c1ccc(OC(F)(F)F)c(F)c1 [Example 272, N-[(3-bromo-1H-indazol-4-yl)methyl]-3-fluoro-4-(trifluoromethoxy)-benzamide] | 59
29 | O=C(NCc1c(F)ccc2[nH]ncc12)c1ccc(OC(F)(F)F)cc1 [Example 273, N-[(5-fluoro-1H-indazol-4-yl)methyl]-4-(trifluoromethoxy)-benzamide] | 93
30 | Cn1nnc2cccc(CNC(=O)c3ccc(OC(F)(F)F)c(F)c3)c21 [Example 274, 3-fluoro-N-[(1-methyl-1H-benzotriazol-7-yl)methyl]-4-(trifluoromethoxy)-benzamide] | 93
31 | Cn1nnc2cccc(CNC(=O)c3cnc(OC(F)F)c(F)c3)c21 [Example 275, 6-(difluoromethoxy)-5-fluoro-N-[(1-methyl-1H-benzotriazol-7-yl)methyl]pyridine-3-carboxamide] | 82
